From PubChem BioAssay (NCI) come the findings set out here.

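96-well plates; 48 h exposure; 5 concentrations. Endpoints by linear interpolation between flanking doses. Not reached: highest tested concentration assigned. TGI: total growth inhibition.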 Where a SMILES comes first, the peptide text is derived from it. [ ]: non-standard residue; d: D form. The star is where a group is joined. X28 = COC1=CC(=O)N(C(=O)[C@@H](O*)C(C)C)[C@H]1Cc1ccccc1; NMeV = CN[C@H](C(=O)O)C(C)C; Hexanoyl = CCCCCC(=O)*

Among the test systems are HCC-2998 colon; MDA-N; MOLT-4 leukemia; OVCAR-5 ovarian; RPMI-8226 leukemia; RXF 393 renal; SF-539 CNS; SK-MEL-2 melanoma; SK-MEL-28 melanoma; UO-31 renal.
Test in all cases: growth of human tumour cells (NCI), 48 h

For the compound `CCCCCC(=O)N[C@H](C(=O)N[C@H](C(=O)N(C)[C@H](C(=O)N1CCC[C@H]1C(=O)N1CCC[C@H]1C(=O)O[C@H](C(=O)N1C(=O)C=C(OC)[C@@H]1Cc1ccccc1)C(C)C)C(C)C)C(C)C)C(C)C` (Hexanoyl-VV[NMeV]PP-X28), the TGI in the assay on HCC-2998 colon was more than 100 µM; in the assay with MDA-N it was more than 100 µM; in the assay on MOLT-4 leukemia, more than 100 µM; in the assay on OVCAR-5 ovarian it was more than 100 µM; in the assay on RPMI-8226 leukemia, more than 100 µM; with RXF 393 renal, 62.7 µM. The TGI in the assay with SF-539 CNS, with SK-MEL-2 melanoma, in the assay with SK-MEL-28 melanoma and with UO-31 renal was more than 100 µM throughout.
Consider `COc1cccc(N=Cc2cc3cc(Br)ccc3nc2Cl)c1`, for which the TGI in the assay on HCC-2998 colon was more than 50 µM; with MDA-N, more than 50 µM; in the assay with MOLT-4 leukemia, more than 50 µM; with OVCAR-5 ovarian, more than 50 µM; in the assay with RPMI-8226 leukemia, 41.6 µM; with RXF 393 renal, more than 50 µM. The TGI in the assay with SF-539 CNS, in the assay on SK-MEL-2 melanoma, with SK-MEL-28 melanoma and in the assay with UO-31 renal was more than 50 µM in each case.
For `CCSCCC(N)C(=O)O` (stereo not given), the TGI in the assay with HCC-2998 colon, in the assay with MDA-N, with MOLT-4 leukemia, in the assay with OVCAR-5 ovarian, with RPMI-8226 leukemia and in the assay on RXF 393 renal was more than 100 µM in each case. Moreover, the TGI with SF-539 CNS, in the assay on SK-MEL-2 melanoma, in the assay with SK-MEL-28 melanoma and in the assay on UO-31 renal was more than 100 µM each time.
For the compound `COc1ccc(/C=C2\C(=O)N(C3OC(COC(C)=O)C(OC(C)=O)C(OC(C)=O)C3OC(C)=O)c3ccccc3N=C2N)cc1` (stereo not given), the TGI with HCC-2998 colon was 54.4 µM; with MDA-N, 26 µM; with MOLT-4 leukemia, 39.7 µM; in the assay on OVCAR-5 ovarian, more than 100 µM; in the assay on RPMI-8226 leukemia, 37.5 µM; with RXF 393 renal, 62.2 µM. Also, the TGI was 21.4 µM in the assay on SF-539 CNS, 66.9 µM with SK-MEL-2 melanoma, 72.2 µM with SK-MEL-28 melanoma and more than 100 µM with UO-31 renal.
As to `C[C@]12CC[C@@H]3c4ccc(OP(=O)(O)O)cc4CC[C@H]3[C@@H]1CCC2=O`, the TGI in the assay with HCC-2998 colon, in the assay on MDA-N, in the assay with MOLT-4 leukemia, with OVCAR-5 ovarian, in the assay on RPMI-8226 leukemia and in the assay on RXF 393 renal was more than 100 µM in each case. The TGI with SF-539 CNS, in the assay on SK-MEL-2 melanoma, in the assay with SK-MEL-28 melanoma and in the assay on UO-31 renal was more than 100 µM throughout.
In the case of `CC[C@H]1C=CCC[C@@]2(C[C@@H]3CC[C@@H]4[C@H](C(=O)OCCCCCCCCCCCCCCCC(=O)O)[C@]5(CCC[C@@H](C)O5)NC(=[N+]34)N2)O1`, the TGI was determined as 0.283 µM in the assay with HCC-2998 colon; 7.68 µM with MDA-N; 2.84 µM in the assay with MOLT-4 leukemia; 8.73 µM in the assay with OVCAR-5 ovarian; 0.582 µM in the assay on RPMI-8226 leukemia; 1.9 µM in the assay on RXF 393 renal. Further, the TGI in the assay on SF-539 CNS was 3.12 µM; in the assay on SK-MEL-2 melanoma it was 0.347 µM; in the assay with SK-MEL-28 melanoma, 5.3 µM; in the assay with UO-31 renal, 0.339 µM.
In the case of `CC(=O)Nc1cc([As](=O)(O)O)ccc1O`, the TGI with HCC-2998 colon, in the assay on MDA-N, in the assay with MOLT-4 leukemia, in the assay with OVCAR-5 ovarian, in the assay with RPMI-8226 leukemia and in the assay on RXF 393 renal was more than 100 µM each time. The TGI in the assay on SF-539 CNS, in the assay with SK-MEL-2 melanoma, in the assay on SK-MEL-28 melanoma and in the assay with UO-31 renal was more than 100 µM each time.
With `Cn1c(=O)c2c(nc(-n3nc(-c4ccc(Cl)cc4)cc3N)n2C)n(C)c1=O`, the TGI in the assay with HCC-2998 colon, with MDA-N, in the assay with MOLT-4 leukemia, in the assay with OVCAR-5 ovarian, with RPMI-8226 leukemia and with RXF 393 renal was more than 100 µM in each case. Also, the TGI in the assay with SF-539 CNS was 69.4 µM; with SK-MEL-2 melanoma it was more than 100 µM; in the assay on SK-MEL-28 melanoma, more than 100 µM; in the assay on UO-31 renal, more than 100 µM.
Regarding `COc1ccc2nc(N/N=C/C(C)=N/Nc3cc(C)c4cc(OC)ccc4n3)cc(C)c2c1`, the TGI is 47.1 µM in the assay with HCC-2998 colon; 55.5 µM in the assay on MDA-N; 42.1 µM in the assay on MOLT-4 leukemia; 49.5 µM in the assay on OVCAR-5 ovarian; 19.2 µM in the assay on RPMI-8226 leukemia; more than 83.1 µM in the assay with RXF 393 renal. Besides, the TGI is 34.7 µM in the assay on SF-539 CNS, more than 82.1 µM in the assay with SK-MEL-2 melanoma, 74.5 µM in the assay on SK-MEL-28 melanoma and more than 100 µM with UO-31 renal.
`COC(=O)C1=CC2CCCC1(O)C(C(C)=O)C2` (stereo not given): the TGI in the assay on HCC-2998 colon is more than 100 µM; in the assay on MDA-N, more than 100 µM; in the assay on MOLT-4 leukemia it was 43.8 µM; in the assay with OVCAR-5 ovarian, more than 100 µM; in the assay with RPMI-8226 leukemia it was 69.6 µM; in the assay with RXF 393 renal it was more than 100 µM. Besides, the TGI in the assay on SF-539 CNS was 26.6 µM; in the assay on SK-MEL-2 melanoma, more than 100 µM; in the assay on SK-MEL-28 melanoma it was more than 100 µM; in the assay on UO-31 renal, 38.6 µM.
On to `CNC(=O)OC(C)CN1c2ccccc2Sc2ccc(Cl)cc21` (stereo not given), for which the TGI with HCC-2998 colon, with MDA-N, in the assay on MOLT-4 leukemia, with OVCAR-5 ovarian, in the assay with RPMI-8226 leukemia and with RXF 393 renal was more than 10 µM throughout. The TGI in the assay on SF-539 CNS, in the assay on SK-MEL-2 melanoma, in the assay with SK-MEL-28 melanoma and with UO-31 renal was more than 10 µM throughout.
